{
  "source": "paper PMC9322052",
  "about": "“Synthesis and Biological Activity Screening of Newly Synthesized Trimethoxyphenyl-Based Analogues as Potential Anticancer Agents” (Molecules, 2022)",
  "key": {"eight cancer cell lines": {"tested_on": "eight cancer cell lines", "set-up": "method as in PMID 23547728", "conditions": "read-out: average IC50 over eight cancer cell lines; cited from earlier work"}, "[1]": {"tested_on": "hepatocellular carcinoma HepG2 cell line", "experiment": "MTT cytotoxicity assay, HepG2", "assay_type": "cell-based, human", "conditions": "Homo sapiens, HepG2, 24 h treatment, mean ± SE", "method": "(§1) All the newly synthesized analogs were evaluated for their in vitro cytotoxicity against the hepatocellular carcinoma HepG2 cell line. Podo was utilized as a reference control in the current study. […] The N-phenyl triazinone derivative 9 was further investigated for its cytotoxic effects against normal liver cell line HL-7702.\n(§2) MTT colorimetric assay was carried out to investigate the impact of the newly synthesized compounds 2–11 on hepatocellular carcinoma (HepG2) and normal liver cell line (HL-7702) cell lines. See Section 3.3.1 in Supplementary Material.\n(§3) 3.3.1. Cytotoxic activity evaluation\nTo measure the cytotoxic activity of the synthesized derivatives 2a-11 in hepatocel-lular carcinoma (HepG2) cell line (ATCC Cat No. HB-8065) as well as normal human liver cell line HL-7702 (ATCC Cat. No. 77402), cell viability assay was assessed using MTT assay method. Cells at density of 1 x 104 were seeded in a 96-well plate at 37 °C for 24 h under 5% CO2. After incubation, the cells were treated with different concentrations of the test compounds 2a-11 and incubated for 24 h, then 20 μl of MTT solution at 5 mg/mL was applied and incubated for 4 h at 37 °C. Dimethyl sulphoxide (DMSO) in volume of 100 µl was added to each well to dissolve the purple formazan that had formed. The color inten-sity of the formazan product, which represents the growth condition of the cells, is quan-tified by using an ELISA plate reader (EXL 800, USA) at 570 nm absorbance. The experi-mental conditions were carried out with at least three replicates, and the experiments were repeated at least three times.\n3.3.2. Tubulin inhibitions Assay\n(§4) Compounds 9, 10 and 11 were evaluated for their tubulin inhibitory activity levels according to the manufacturer’s instructions using # abcam Human Beta-tubulin simplestep […]\n3.3.3. Cell cycle analysis of compound 9\nCell cycle analysis in HepG2 cells was investigated using fluorescent Annexin V-FITC/ PI detection kit (BioVision EZCellTM Cell Cycle Analysis Kit Catalog #K920) by flow cytometry assay. HepG2 cells at a density of 2 × 10^5 per well were harvested and washed twice in PBS. After that, the cells were incubated at 37 °C and 5% CO2. […] Afterward, medium was stained with DNA flu-orochrome PI for 15 min at 37 °C. The samples were immediately analyzed using Facs Calibur flow cytometer (Becton and Dickinson, Heidelberg, Germany).\n3.3.4. Apoptosis assay for compound 9\nApoptosis in HepG2 cells was investigated using fluorescent Annexin V-FITC/ PI de-tection kit (BioVision Annexin V-FITC Apoptosis Detection Kit, Catalog #: K101) by flow cy-tometry assay. HepG2 cells at a density of 2 × 10^5 per well were treated with compound 9 at its IC50 (μM) for 48 h, then the cells were harvested and stained with Annexin V-FITC/ PI dye for 15 min in the dark at 37 °C. The samples were immediately analyzed using FACS Calibur flow cytometer (Becton and Dickinson, Heidelberg, Germany).\n3.3.5. Measurement of mitochondrial membrane potential (MMP) for compound 9 MMP was measured by FACS analysis using abcam ab113852TMRE Mitochondrial Membrane Potential Assay Kit with DiOC2(3) staining using MitoProbe™ DiOC2(3) Assay Kit for Flow Cytometry (M34150). After treatment with compound 9 at its IC50 concentra-tion, cells were stained with DiOC2(3) dye for 30 min in the incubator, then harvested and washed with PBS. DiOC2(3)-stained cells were represented with Annexin binding buffer and incubated at 37 °C for 15 min. The samples were immediately analyzed using cell […]\n3.3.6. Effect on p53, Bax and Bcl-2 p53, Bax and Bcl2 enzyme activities in HepG2 cells were detected in the presence of com-pound 9 at its IC50 concentration (μM). The levels of the tumor suppressor gene p53, apoptotic markers Bax as well as the anti-apoptotic marker Bcl-2 were assessed using p53 ELISA kit, Human Bax ELISA kit and Bcl-2 Elisa kit. […]"}, "[2]": {"tested_on": "normal liver cell line HL-7702", "experiment": "MTT cytotoxicity assay, normal liver cells", "assay_type": "cell-based", "conditions": "Homo sapiens, L02, 24 h treatment, mean ± SE", "method": "as §1, §2, §3\nTo measure the cytotoxic activity of the synthesized derivatives 2a-11 in hepatocel-lular carcinoma (HepG2) cell line (ATCC Cat No. HB-8065) as well as normal human liver cell line HL-7702 (ATCC Cat. No. 77402), cell viability assay was assessed using MTT assay method. Cells at density of 1 x 104 were seeded in a 96-well plate at 37 °C for 24 h under 5% CO2. […] The color inten-sity of the formazan product, which represents the growth condition of the cells, is quan-tified by using an ELISA plate reader (EXL 800, USA) at 570 nm absorbance. […]\nas §4\n3.3.5. […] The samples were immediately analyzed using cell […]"}, "β-tubulin": {"tested_on": "β-tubulin", "experiment": "Tubulin polymerization inhibition (beta-tubulin ELISA in HepG2 cells)", "assay_type": "cell-based, human", "method": "The selected candidates were tested at a concentration equal to their IC50 concentration dose value. […] See Section 3.3.2 in Supplementary Material. […] page 18: 3.3. Biological studies 3.3.1. Cytotoxic activity evaluation To measure the cytotoxic activity of the synthesized derivatives 2a-11 in hepatocel- lular carcinoma (HepG2) cell line (ATCC Cat No. HB-8065) as well as normal human liver cell line HL-7702 (ATCC Cat. No. 77402), cell viability assay was assessed using MTT assay method. Cells at density of 1 x 104 were seeded in a 96-well plate at 37 °C for 24 h under 5% CO2. After incubation, the cells were treated with different concentrations of the test compounds 2a-11 and incubated for 24 h, then 20 μl of MTT solution at 5 mg/mL was […] Dimethyl sulphoxide (DMSO) in volume of 100 μl was added to each well to dissolve the purple formazan that had formed. The color […] of the formazan product, which represents the growth condition of the cells, is quan- […] by using an ELISA plate reader (EXL 800, USA) at 570 nm absorbance. The experi- mental conditions were carried out with at least three replicates, and the experiments were repeated at least three times. 3.3.2. Tubulin inhibitions Assay […] according to the manufacturer's instructions using # abcam Human Beta-tubulin […] ELISA Kit ab245722. 3.3.3. Cell cycle analysis of compound 9 Cell cycle analysis in HepG2 cells was investigated using fluorescent Annexin V- FITC/ PI detection kit (BioVision EZCellTM Cell Cycle Analysis Kit Catalog #K920) by flow cytometry assay. […] twice in PBS. After that, the cells were incubated at 37 °C and 5% CO2. […] Apoptosis assay for compound 9 Apoptosis in HepG2 cells was investigated using fluorescent Annexin V-FITC/ PI de- tection kit (BioVision Annexin V-FITC Apoptosis Detection Kit, Catalog #: K101) by flow cy- tometry assay. […] The samples were immediately analyzed using FACS Calibur flow cytometer (Becton and Dickinson, Heidelberg, Germany). 3.3.5. Measurement of mitochondrial membrane potential (MMP) for compound 9 MMP was measured by FACS analysis using abcam ab113852TMRE Mitochondrial Membrane Potential Assay Kit with DiOC2(3) staining using MitoProbeTM DiOC2(3) Assay Kit for Flow Cytometry (M34150). After treatment with compound 9 at its IC50 concentra- tion, cells were stained with DiOC2(3) dye for 30 min in the incubator, then harvested and washed with PBS. […] The samples were immediately analyzed using cell Quest software. […] Effect on p53, Bax and Bcl-2 p53, Bax and Bcl2 enzyme activities in HepG2 cells were detected in the presence of com- pound 9 at its IC50 concentration (μM). The levels of the tumor suppressor gene p53, apoptotic markers Bax as well as the anti-apoptotic marker Bcl-2 were assessed using p53 ELISA kit, Human Bax ELISA kit and Bcl-2 Elisa kit. […]"}, "A-594 cell line": {"tested_on": "A-594 cell line", "set-up": "method as in doi:10.1016/j.arabjc.2021.103644", "conditions": "read-out: IC50, antiproliferative activity; cited from earlier work"}, "EC-109 cell line": {"tested_on": "EC-109 cell line", "set-up": "method as in doi:10.1016/j.arabjc.2021.103644", "conditions": "read-out: IC50, antiproliferative activity; cited from earlier work"}, "PC-3 cell line": {"tested_on": "PC-3 cell line", "set-up": "method as in doi:10.1016/j.arabjc.2021.103644", "conditions": "read-out: IC50, antiproliferative activity; cited from earlier work"}, "HCT-116 cell line": {"tested_on": "HCT-116 cell line", "set-up": "method as in doi:10.1016/j.arabjc.2021.103644", "conditions": "read-out: IC50, antiproliferative activity; cited from earlier work"}, "MGC-803 cell line": {"tested_on": "MGC-803 cell line", "set-up": "method as in doi:10.1016/j.arabjc.2021.103644", "conditions": "read-out: IC50, antiproliferative activity; cited from earlier work"}},
  "data": [
    {"compound": "COc1cc(C(=O)c2nc(-c3ccccc3)c[nH]2)cc(OC)c1OC", "note": "[RABI-112]", "values": [
      {"measurement": "IC50", "setting": "eight cancer cell lines", "value": 14, "unit": "nM"}
    ]},
    {"compound": "COc1cc([C@@H]2c3cc4c(cc3[C@H](O)[C@H]3COC(=O)[C@H]23)OCO4)cc(OC)c1OC", "note": "[podo, podophyllotoxin, reference compound]", "values": [
      {"measurement": "IC50", "setting": "[1]", "value": "2.08 ± 0.04", "unit": "µM"},
      {"measurement": "IC50", "setting": "[2]", "value": "18.6 ± 0.58", "unit": "µM"},
      {"measurement": "β-tubulin polymerization inhibition percentage", "setting": "β-tubulin", "value": 91.32, "unit": "%"}
    ]},
    {"compound": "COc1cc(Nc2nc(Cc3ccc(C(=O)/C=C/c4ccccn4)cc3)nnc2Cl)cc(OC)c1OC", "note": "[V]", "values": [
      {"measurement": "IC50", "setting": "A-594 cell line", "value": 520, "unit": "nM"},
      {"measurement": "IC50", "setting": "EC-109 cell line", "value": 780, "unit": "nM"},
      {"measurement": "IC50", "setting": "PC-3 cell line", "value": 610, "unit": "nM"},
      {"measurement": "IC50", "setting": "HCT-116 cell line", "value": 430, "unit": "nM"},
      {"measurement": "IC50", "setting": "MGC-803 cell line", "value": 410, "unit": "nM"}
    ]}
  ]
}
